Results as given in patent US20250320193A1, “OXOISOINDOLINYL SUBSTITUTED PIPERIDINEDIONE DERIVATIVE AND USE THEREOF” (GLUETACS THERAPEUTICS (SHANGHAI) CO., LTD., priority 2022, published 2025).

Assays:
Assay type in all cases: cell-based
Conditions in all cases: hPBMC, compound 500 nM, 24 hours, Western blot
IKZF1 = IKZF1 (Homo sapiens (Human), UniProt Q13422+Q96SW2); test: Western blot, substrate protein expression in hPBMC: IKZF1
Method: (§1) The effect of the compounds of the present disclosure on the expression of target proteins in cells was detected using conventional Western blot analysis.
(§2) Human peripheral blood mononuclear cells (hPBMCs) at a density of 1×10^6 cells/mL were thawed according to the PBMC Recovery Protocol (Milecell Biotechnologies Inc, Shanghai). […] After 24 hours of compounds treatment, cells were harvested and lysed in RIPA protein lysate containing phosphatase inhibitors on ice for 30-60 min, followed by centrifugation. The supernatant was aspirated as the extracted total cell protein. The protein concentration of the supernatant was determined using the conventional BCA (Bicinchoninic Acid) assay. The supernatant was then mixed with 4× SDS sample loading buffer, denatured at 95° C. for 5 minutes, and then subjected to SDS-PAGE electrophoresis on a polyacrylamide gel. Proteins were then transferred to a nitrocellulose (NC) membrane, blocked at room temperature for 1-2 h, and processed for antibody incubation and detection according to the manufacturer's instructions (Cell Signaling Technology).
(§3) Half-Maximal Degradation Concentration value (the drug concentration required for degrading proteins by 50%, abbreviated as DC50) reads method: comparing the grayscale values of Western blot bands from drug-treated samples (protein degrader compounds) with those from blank (DMSO-treated) controls, and identifying the drug concentration range at which the grayscale value is half that of the DMSO-treated control bands.
(§4) DC50 values can be calculated using ImageJ software to measure grayscale values of Western blot bands from drug-treated samples. The relationship curve between drug concentration and grayscale values is fitted to estimate the drug concentration corresponding to half the grayscale value.
(§5) Target protein remaining (%) refers to the percentage of target protein remaining in hPBMC cells after treatment with protein degrader compounds.
(§6) Calculation method for protein remaining (%): Use ImageJ software to measure grayscale values of Western blot bands from drug (protein degrader)-treated samples. The grayscale value of drug-treated bands is divided by that of internal control protein bands, and the resulting quotient is normalized to obtain the relative percentage of remaining target protein after protein degrader treatment.
(§7) Target protein degradation rate (%)=100%-target protein remaining (%).

IKZF3 = IKZF3 (Homo sapiens (Human), UniProt Q96SW2+Q9UKT9); test: Western blot, substrate protein expression in hPBMC: IKZF3
Method: as §1, §2, §3, §4, §5, §6, §7

GSPT1 = GSPT1 (Homo sapiens (Human), UniProt P15170+Q96SW2); test: Western blot, substrate protein expression in hPBMC: GSPT1
Method: as §1, §2, §3, §4, §5, §6, §7

Chain of IKZF1 (Q13422 whole entry): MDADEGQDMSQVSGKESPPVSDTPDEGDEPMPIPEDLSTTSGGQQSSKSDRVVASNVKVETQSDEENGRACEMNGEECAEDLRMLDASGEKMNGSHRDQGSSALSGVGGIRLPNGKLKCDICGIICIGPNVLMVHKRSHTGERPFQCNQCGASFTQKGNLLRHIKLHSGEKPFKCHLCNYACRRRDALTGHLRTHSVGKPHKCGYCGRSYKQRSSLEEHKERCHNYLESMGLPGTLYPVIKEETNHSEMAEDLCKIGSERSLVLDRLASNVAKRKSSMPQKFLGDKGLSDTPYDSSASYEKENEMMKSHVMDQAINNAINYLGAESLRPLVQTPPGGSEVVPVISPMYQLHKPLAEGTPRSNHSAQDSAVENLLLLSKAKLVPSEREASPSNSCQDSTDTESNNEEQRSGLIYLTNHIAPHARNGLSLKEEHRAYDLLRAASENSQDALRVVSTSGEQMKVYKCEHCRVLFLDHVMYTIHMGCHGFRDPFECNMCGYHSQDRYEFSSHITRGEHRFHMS
Chain of IKZF1 (Q96SW2 whole entry): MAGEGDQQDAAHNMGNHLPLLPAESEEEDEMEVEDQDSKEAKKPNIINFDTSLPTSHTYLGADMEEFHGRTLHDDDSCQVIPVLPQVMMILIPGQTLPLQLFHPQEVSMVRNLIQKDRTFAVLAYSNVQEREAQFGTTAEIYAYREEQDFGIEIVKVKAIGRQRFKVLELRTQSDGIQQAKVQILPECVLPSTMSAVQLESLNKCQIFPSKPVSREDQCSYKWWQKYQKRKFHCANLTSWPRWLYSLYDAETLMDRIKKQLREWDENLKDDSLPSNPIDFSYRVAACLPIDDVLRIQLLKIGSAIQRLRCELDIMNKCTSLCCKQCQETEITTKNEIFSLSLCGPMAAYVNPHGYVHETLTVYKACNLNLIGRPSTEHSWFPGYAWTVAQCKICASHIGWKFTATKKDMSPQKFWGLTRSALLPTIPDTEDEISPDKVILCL
Chain of IKZF1 (Q16531 whole entry partner): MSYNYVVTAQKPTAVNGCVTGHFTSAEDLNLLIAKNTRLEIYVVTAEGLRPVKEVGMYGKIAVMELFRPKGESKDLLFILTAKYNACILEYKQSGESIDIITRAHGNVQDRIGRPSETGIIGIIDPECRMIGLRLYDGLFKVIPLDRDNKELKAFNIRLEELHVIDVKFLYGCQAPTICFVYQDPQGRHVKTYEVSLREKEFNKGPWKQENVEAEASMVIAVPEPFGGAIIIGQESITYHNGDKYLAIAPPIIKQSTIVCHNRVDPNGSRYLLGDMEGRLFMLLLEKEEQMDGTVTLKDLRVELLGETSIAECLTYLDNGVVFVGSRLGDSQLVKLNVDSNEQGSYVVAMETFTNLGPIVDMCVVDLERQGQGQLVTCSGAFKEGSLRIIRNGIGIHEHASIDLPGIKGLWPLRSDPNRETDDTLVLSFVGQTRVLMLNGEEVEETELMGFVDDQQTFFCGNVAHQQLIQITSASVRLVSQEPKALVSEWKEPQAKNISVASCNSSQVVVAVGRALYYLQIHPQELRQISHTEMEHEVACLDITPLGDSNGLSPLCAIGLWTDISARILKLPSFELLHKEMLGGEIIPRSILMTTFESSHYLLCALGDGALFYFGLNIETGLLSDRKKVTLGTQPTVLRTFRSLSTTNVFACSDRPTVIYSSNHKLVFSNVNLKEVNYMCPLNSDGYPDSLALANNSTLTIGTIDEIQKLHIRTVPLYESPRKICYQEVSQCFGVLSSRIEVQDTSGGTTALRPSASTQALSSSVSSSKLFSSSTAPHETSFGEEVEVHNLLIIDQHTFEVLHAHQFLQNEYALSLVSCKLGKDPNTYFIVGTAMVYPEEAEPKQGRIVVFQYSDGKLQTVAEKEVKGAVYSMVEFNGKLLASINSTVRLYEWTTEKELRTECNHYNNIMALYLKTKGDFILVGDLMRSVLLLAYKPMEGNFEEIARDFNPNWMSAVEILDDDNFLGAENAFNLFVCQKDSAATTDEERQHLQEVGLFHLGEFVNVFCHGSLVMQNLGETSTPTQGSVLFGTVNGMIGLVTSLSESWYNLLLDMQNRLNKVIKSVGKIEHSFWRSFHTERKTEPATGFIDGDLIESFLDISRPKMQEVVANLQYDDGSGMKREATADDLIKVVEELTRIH
Chain of IKZF3 (Q9UKT9 whole entry): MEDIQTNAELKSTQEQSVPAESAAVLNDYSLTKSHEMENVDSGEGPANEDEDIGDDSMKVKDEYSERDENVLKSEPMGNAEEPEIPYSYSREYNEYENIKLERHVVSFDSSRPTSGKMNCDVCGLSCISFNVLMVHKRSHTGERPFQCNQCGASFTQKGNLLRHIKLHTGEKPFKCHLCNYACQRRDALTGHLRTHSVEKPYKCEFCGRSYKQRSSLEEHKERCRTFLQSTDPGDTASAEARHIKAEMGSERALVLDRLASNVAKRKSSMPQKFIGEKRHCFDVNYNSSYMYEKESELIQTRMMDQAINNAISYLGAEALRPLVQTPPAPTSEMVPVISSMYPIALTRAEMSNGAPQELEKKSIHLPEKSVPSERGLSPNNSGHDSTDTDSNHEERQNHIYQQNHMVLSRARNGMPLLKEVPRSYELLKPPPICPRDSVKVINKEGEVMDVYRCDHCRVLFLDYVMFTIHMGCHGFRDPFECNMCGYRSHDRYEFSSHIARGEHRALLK
Chain of IKZF3 (Q96SW2 whole entry): as the sequence (Q96SW2 whole entry) above
Chain of IKZF3 (Q16531 whole entry partner): as the sequence (Q16531 whole entry partner) above
Chain of GSPT1 (P15170 whole entry): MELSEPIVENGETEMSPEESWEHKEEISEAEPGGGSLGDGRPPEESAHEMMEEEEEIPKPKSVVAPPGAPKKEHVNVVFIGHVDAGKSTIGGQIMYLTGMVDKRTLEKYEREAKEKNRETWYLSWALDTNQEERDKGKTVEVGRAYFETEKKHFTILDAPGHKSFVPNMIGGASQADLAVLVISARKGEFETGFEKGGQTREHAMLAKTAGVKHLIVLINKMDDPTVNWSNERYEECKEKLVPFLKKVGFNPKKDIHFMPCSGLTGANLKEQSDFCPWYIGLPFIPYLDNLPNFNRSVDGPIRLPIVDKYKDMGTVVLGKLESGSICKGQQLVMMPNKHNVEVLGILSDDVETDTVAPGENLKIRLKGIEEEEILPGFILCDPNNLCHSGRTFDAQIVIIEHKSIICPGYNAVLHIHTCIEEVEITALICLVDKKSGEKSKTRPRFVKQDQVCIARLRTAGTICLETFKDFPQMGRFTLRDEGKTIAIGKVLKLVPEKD
Chain of GSPT1 (Q96SW2 whole entry): as the sequence (Q96SW2 whole entry) above
Chain of GSPT1 (Q16531 whole entry partner): as the sequence (Q16531 whole entry partner) above

Structure (SMILES)	substrate protein remaining % IKZF1 (IKZF1)	substrate protein remaining % IKZF3 (IKZF3)	substrate protein remaining % GSPT1 (GSPT1)
O=C1CCC(N2C(=O)c3ccc(C(=O)N4CC5CCC(C4)N5C(c4ccccc4)c4ccccc4)cc3C2=O)C(=O)N1 (stereo not drawn) [GT-05982, 5-(8-benzhydryl-3,8-diazabicyclo[3.2.1]octane-3-carbonyl)-2-(2,6-dioxopiperidin-3-yl) isoindoline-1,3-dione]	B (B represents substrate protein remaining % > 50%)	B (B represents substrate protein remaining % > 50%)	A (A represents 0% ≤ substrate protein remaining % ≤ 50%)
C[C@@H]1CN(C(c2ccccc2)c2ccccc2)CCN1Cc1ccc2c(c1)C(=O)N(C1CCC(=O)NC1=O)C2=O (stereo partly drawn) [GT-06047, 5-(((R)-4-benzhydryl-2-methylpiperazin-1-yl)methyl)-2-(2,6-dioxopiperidin-3-yl) isoindoline-1,3-dione]	B (B represents substrate protein remaining % > 50%)	B (B represents substrate protein remaining % > 50%)	A (A represents 0% ≤ substrate protein remaining % ≤ 50%)
O=C1CCC(N2C(=O)c3ccc(CN4CCN(C5c6cc(Cl)ccc6-c6ccc(Cl)cc65)CC4)cc3C2=O)C(=O)N1 (stereo not drawn) [GT-06049, 5-((4-(2,7-dichloro-9H-fluoren-9-yl)piperazin-1-yl)methyl)-2-(2,6-dioxopiperidin-3-yl) isoindoline-1,3-dione]	B (B represents substrate protein remaining % > 50%)	A (A represents 0% ≤ substrate protein remaining % ≤ 50%)	A (A represents 0% ≤ substrate protein remaining % ≤ 50%)
O=C1CCC(N2C(=O)c3ccc(CN4CC5CN(C(c6ccccc6)c6ccccc6)CC5C4)cc3C2=O)C(=O)N1 (stereo not drawn) [GT-06053, 5-((5-benzhydrylhexahydropyrrolo[3,4-c]pyrrol-2 (1H)-yl)methyl)-2-(2,6-dioxopiperidin-3-yl) isoindoline-1,3-dione]	B (B represents substrate protein remaining % > 50%)	B (B represents substrate protein remaining % > 50%)	A (A represents 0% ≤ substrate protein remaining % ≤ 50%)
O=C1CCC(N2C(=O)c3ccc(C(=O)N4CC5CN(C(c6ccccc6)c6ccccc6)CC5C4)cc3C2=O)C(=O)N1 (stereo not drawn) [GT-06068, 5-(5-benzhydryloctahydropyrrolo[3,4-c]pyrrole-2-carbonyl)-2-(2,6-dioxopiperidin-3-yl) isoindoline-1,3-dione]	B (B represents substrate protein remaining % > 50%)	B (B represents substrate protein remaining % > 50%)	A (A represents 0% ≤ substrate protein remaining % ≤ 50%)
O=C1CCC(N2C(=O)c3ccc(CN4CCN(C(c5ccccc5F)c5ccccc5F)CC4)cc3C2=O)C(=O)N1 (stereo not drawn) [GT-06088, 5-((4-(bis(2-fluorophenyl)methyl)piperazin-1-yl)methyl)-2-(2,6-dioxopiperidin-3-yl) isoindoline-1,3-dione]	B (B represents substrate protein remaining % > 50%)	B (B represents substrate protein remaining % > 50%)	A (A represents 0% ≤ substrate protein remaining % ≤ 50%)
C[C@@H]1CN(C(c2ccccc2)c2ccccc2)CCN1C(=O)c1ccc2c(c1)C(=O)N(C1CCC(=O)NC1=O)C2=O (stereo partly drawn) [GT-06094, 5-((R)-4-benzhydryl-2-methylpiperazine-1-carbonyl)-2-(2,6-dioxopiperidin-3-yl) isoindoline-1,3-dione]	B (B represents substrate protein remaining % > 50%)	B (B represents substrate protein remaining % > 50%)	A (A represents 0% ≤ substrate protein remaining % ≤ 50%)
O=C1CCC(N2C(=O)c3ccc(CN4CCN(C(c5ccccc5)c5ccccc5)CC4C(F)(F)F)cc3C2=O)C(=O)N1 (stereo not drawn) [GT-06099, 5-((4-benzhydryl-2-(trifluoromethyl)piperazin-1-yl)methyl)-2-(2,6-dioxopiperidin-3-yl) isoindoline-1,3-dione]	B (B represents substrate protein remaining % > 50%)	B (B represents substrate protein remaining % > 50%)	A (A represents 0% ≤ substrate protein remaining % ≤ 50%)
O=C1CCC(N2C(=O)c3ccc(CN4CCN(C(c5ccccc5)c5ccncc5)CC4)cc3C2=O)C(=O)N1 (stereo not drawn) [GT-06115, 2-(2,6-dioxopiperidin-3-yl)-5-((4-(phenyl(pyridin-4-yl)methyl)piperazin-1-yl)methyl) isoindoline-1,3-dione]	B (B represents substrate protein remaining % > 50%)	B (B represents substrate protein remaining % > 50%)	A (A represents 0% ≤ substrate protein remaining % ≤ 50%)
O=C1CCC(N2Cc3c(ccc(CN4CCN(C(c5ccc(C(F)(F)F)cc5)c5ccc(C(F)(F)F)cc5)CC4)c3F)C2=O)C(=O)N1 (stereo not drawn) [GT-06200, 3-(5-((4-(bis(4-(trifluoromethyl)phenyl)methyl)piperazin-1-yl)methyl)-4-fluoro-1-oxoisoindolin-2-yl)piperidine-2,6-dione]	B (B represents substrate protein remaining % > 50%)	A (A represents 0% ≤ substrate protein remaining % ≤ 50%)	A (A represents 0% ≤ substrate protein remaining % ≤ 50%)
O=C1CCC(N2Cc3cc(CN4CCN(C(c5ccc(C(F)(F)F)cc5)c5ccc(C(F)(F)F)cc5)CC4)c(F)cc3C2=O)C(=O)N1 (stereo not drawn) [GT-06201, 3-(5-((4-(bis(4-(trifluoromethyl)phenyl)methyl)piperazin-1-yl)methyl)-6-fluoro-1-oxoisoindolin-2-yl)piperidine-2,6-dione]	B (B represents substrate protein remaining % > 50%)	A (A represents 0% ≤ substrate protein remaining % ≤ 50%)	A (A represents 0% ≤ substrate protein remaining % ≤ 50%)
O=C1CCC(N2C(=O)c3ccc(CN4CCN(C(c5ccc(C(F)(F)F)cc5)c5ccc(C(F)(F)F)cc5)CC4)cc3C2=O)C(=O)N1 (stereo not drawn) [GT-06203, 5-((4-(bis(4-(trifluoromethyl)phenyl)methyl)piperazin-1-yl)methyl)-2-(2,6-dioxopiperidin-3-yl) isoindoline-1,3-dione]	B (B represents substrate protein remaining % > 50%)	A (A represents 0% ≤ substrate protein remaining % ≤ 50%)	A (A represents 0% ≤ substrate protein remaining % ≤ 50%)
O=C1CCC(N2C(=O)c3ccc(C(=O)N4CCN(C(c5ccc(C(F)(F)F)cc5)c5ccc(C(F)(F)F)cc5)CC4)cc3C2=O)C(=O)N1 (stereo not drawn) [GT-06217, 5-(4-(bis(4-(trifluoromethyl)phenyl)methyl)piperazine-1-carbonyl)-2-(2,6-dioxopiperidin-3-yl) isoindoline-1,3-dione]	B (B represents substrate protein remaining % > 50%)	B (B represents substrate protein remaining % > 50%)	A (A represents 0% ≤ substrate protein remaining % ≤ 50%)
CC1(C)CN(C(=O)c2ccc3c(c2)C(=O)N(C2CCC(=O)NC2=O)C3=O)CCN1C(c1ccccc1)c1ccccc1 (stereo not drawn) [GT-06278, 5-(4-benzhydryl-3,3-dimethylpiperazine-1-carbonyl)-2-(2,6-dioxopiperidin-3-yl) isoindoline-1,3-dione]	B (B represents substrate protein remaining % > 50%)	B (B represents substrate protein remaining % > 50%)	A (A represents 0% ≤ substrate protein remaining % ≤ 50%)
O=C1CCC(N2Cc3cc(CN4CCN(C(c5ccc(OCc6ccccc6)cc5)c5ccc(OCc6ccccc6)cc5)CC4)ccc3C2=O)C(=O)N1 (stereo not drawn) [GT-06424, 3-(5-((4-(bis(4-(benzyloxy)phenyl)methyl)piperazin-1-yl)methyl)-1-oxoisoindolin-2-yl)piperidine-2,6-dione]	B (B represents substrate protein remaining % > 50%)	A (A represents 0% ≤ substrate protein remaining % ≤ 50%)	A (A represents 0% ≤ substrate protein remaining % ≤ 50%)
